Source: US11278541B2, “Low dose combination therapy for treatment of myeloproliferative neoplasms” (Incyte Corporation, priority 2017, dated 2022)
Where a name gives a salt, the structure may show the parent alone.

How the values were obtained:
Pim1 = target: T1, Pim1 (Homo sapiens, UniProt P11309); experiment: Pim-1 kinase assay (Assay B); type: biochemical; details: 1 mM ATP
T1 construct: purchased Invitrogen PV3503
Description: Pim-1 and Pim-3 kinase assays—20 μL reactions were run in white 384 well polystyrene plates dotted with 0.8 μL compound/DMSO in the assay buffer (50 mM Tris, pH 7.5, 0.01% Tween-20, 5 mM MgCl2, 0.01% BSA, 5 mM DTT), containing 0.05 μM Biotin-labeled BAD peptide substrate (AnaSpec 62269), 1 mM ATP, and 2.5 pM (Pim-1, Invitrogen PV3503) or 1.25 pM (Pim-3, Millipore 14-738) enzyme for 1 h at 25° C. Reactions were stopped by addition of 10 μL STOP Buffer (150 mM Tris, pH=7.5, 150 mM NaCl, 75 mM EDTA, 0.01% Tween-20, 0.3% BSA) supplemented with Phospho-Bad (Ser112) Antibody (Cell Signaling 9291) diluted 666-fold, and Streptavidin donor beads (PerkinElmer 6760002) along with Protein-A acceptor beads (PerkinElmer 6760137) at 15 μg/mL each. Supplementation of the STOP buffer with beads and stopping the reactions were done under reduced light. Prior to the stopping reactions STOP buffer with beads was pre-incubated for 1 h in the dark at room temperature. After stopping the reactions, plates were incubated for 1 h in the dark at room temperature before reading on a PHERAstar FS plate reader (BMG Labtech) under reduced light.

Pim2 = target: T2, Pim2 (Homo sapiens, UniProt Q9P1W9); experiment: Pim-2 kinase assay (Assay B); type: biochemical; details: 1 mM ATP
T2 construct: purchased Invitrogen PV3649
T2 sequence (Q9P1W9 whole entry): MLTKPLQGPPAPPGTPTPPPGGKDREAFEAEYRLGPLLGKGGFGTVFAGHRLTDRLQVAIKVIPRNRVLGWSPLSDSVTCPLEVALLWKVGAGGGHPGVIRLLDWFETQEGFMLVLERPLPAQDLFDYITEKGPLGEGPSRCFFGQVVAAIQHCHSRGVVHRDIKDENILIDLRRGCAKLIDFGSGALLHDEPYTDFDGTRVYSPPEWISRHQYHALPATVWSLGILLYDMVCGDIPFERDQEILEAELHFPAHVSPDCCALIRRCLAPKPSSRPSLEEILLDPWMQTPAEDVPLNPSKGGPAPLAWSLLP
Description: Pim-2 kinase assay—20 μL reactions were run in white 384 well polystyrene plates dotted with 0.8 μL compound/DMSO in the assay buffer (50 mM Tris, pH 7.5, 0.01% Tween-20, 5 mM MgCl2, 0.01% BSA, 5 mM DTT), containing 0.05 μM Fluorescein-labeled CREBtide peptide substrate (Invitrogen PV3508), 1 mM ATP, and 1 nM enzyme (Invitrogen PV3649) for 2 h at 25° C. Reactions were stopped by addition of 10 μL TR-FRET Dilution Buffer (Invitrogen PV3574) with 30 mM EDTA and 1.5 nM LanthaScreen Tb-CREB pSer133 antibody (Invitrogen PV3566). After 30 min. incubation at room temperature, plates were read on a PHERAstar FS plate reader (BMG Labtech).

Pim3 = Pim3 (Homo sapiens, UniProt Q86V86); experiment: Pim-3 kinase assay (Assay B); type: biochemical; details: 1 mM ATP
[1] = system: Peripheral blood mononuclear cells from an MPN patient (PV, JAK2-V617F+); experiment: Epo-independent erythroid colony formation; type: cell-based, human; details: Compound 1 alone, colonies scored after 12 days
Text: Epo-independent erythroid colonies were scored after 12 days. […] The lower measured % growth indicates synergy.

[2] = Free fraction in media of the Example 3 assay; type: in vitro ADME; details: cell assay media (Example 3 assay); media of Example 3 assay
Text: The assay in Example 3 involved plating cells from blood in media. […] The serum free fraction and media free fractions of 7% and 58% can be used to convert the results in Example 3 to an human dose assuming a linear dose-response curve.

[3] = system: pBAD in KMS12BM cell line; experiment: pBAD inhibition by patient plasma samples incubated ex vivo with KMS12BM cell line; type: in vivo, human; details: KMS-12-BM, 192 h; 80 mg BID, cycle 1, day 8, time course
Description: Plasma samples from patients were incubated ex vivo with the KMS12BM cell line for 2.5 hours at 37° C. Whole cell lysates were prepared from the cells, and levels of pBAD were determined using an ELISA.

[4] = Conversion of Example 3 cell activity to protein-binding adjusted activity and human dose
[5] = Protein binding in human serum (equilibrium dialysis); type: in vitro ADME; details: 0.3 μM-10 μM
Description: For human, the average in vitro serum fraction unbound (fu) of 7.0%. For the protein binding determination, the Multi-Equilibrium Dialyzer System™ and diachema membranes from Harvard Apparatus (Holliston, Mass.) were utilized. Samples were protein precipitated, matrix matched and then centrifuged. The supernatant was transferred and analyzed using LC-MS/MS. The percent fraction unbound for in vitro samples was calculated using final peak area ratios in post-dialysis buffer divided by final peak area ratios in post-dialysis serum, with correction applied for volume shift.

T1 sequence (P11309 whole entry): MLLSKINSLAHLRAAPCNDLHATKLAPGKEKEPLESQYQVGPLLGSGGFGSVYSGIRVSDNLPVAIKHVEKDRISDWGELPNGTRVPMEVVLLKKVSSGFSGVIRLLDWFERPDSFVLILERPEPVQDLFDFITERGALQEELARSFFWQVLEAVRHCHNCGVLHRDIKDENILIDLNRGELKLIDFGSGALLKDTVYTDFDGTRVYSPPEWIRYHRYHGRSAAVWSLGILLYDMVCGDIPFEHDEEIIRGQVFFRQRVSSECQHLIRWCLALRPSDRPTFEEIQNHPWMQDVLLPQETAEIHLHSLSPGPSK

IC50 (Pim1) [µM] | IC50 (Pim2) [µM] | IC50 (Pim3) [µM] | fraction unbound [2] | shift in activity (media to serum protein binding) ([4]; (58%)/7%) [fold] | protein binding [5] | fraction unbound ([5]; read-out: average in vitro serum fraction unbound (fu)) | Structure (SMILES) | neoplastic erythroid colony formation of JAK2-V617F(+) MPN hematopoietic progenitors [1] | inhibition at 80 mg [3] [%] | inhibition level corresponding to protein-binding adjusted activity ([4]; adjusted activity 8.3 nM) | inhibition level corresponding to protein-binding adjusted activity ([4]; adjusted activity 41 nM) | Protein-binding adjusted activity ([4]; cell activity Example 3: 1 nM) [nM] | Protein-binding adjusted activity ([4]; cell activity Example 3: 5 nM) [nM] | Protein-binding adjusted activity ([4]; cell activity Example 3: 20 nM) [nM]
< 0.035 | < 0.035 | < 0.035 | – | – | – | – | C[C@H]1CN(c2c(NC(=O)c3ccc(F)c(-c4c(F)cccc4F)n3)cnc3c2CC[C@H]3O)C[C@@H](N)[C@@H]1O [phosphoric acid salt of Compound 1] | – | – | – | – | – | – | –
< 0.035 | < 0.035 | < 0.035 | – | – | – | – | C[C@H]1CN(c2c(NC(=O)c3ccc(F)c(-c4c(F)cccc4F)n3)cnc3c2CC[C@H]3O)C[C@@H](N)[C@@H]1O [dihydrochloric acid salt of Compound 1] | – | – | – | – | – | – | –
≤ 0.1 | ≤ 0.1 | ≤ 0.1 | 0.58 | 8.3 | high protein binding | 0.07 | C[C@H]1CN(c2c(NC(=O)c3ccc(F)c(-c4c(F)cccc4F)n3)cnc3c2CC[C@H]3O)C[C@@H](N)[C@@H]1O [Compound 1, N-{(7R)-4-[(3R,4R,5S)-3-Amino-4-hydroxy-5-methylpiperidin-1-yl]-7-hydroxy-6,7-dihydro-5H-cyclopenta[b]pyridin-3-yl}-6-(2,6-difluorophenyl)-5-fluoropyridine-2-carboxamide] | Inhibition | 76 | IC5.7 | IC23 | 8.3 | 41 | 166
